Target: T1, human 11-β-hydroxysteroid dehydrogenase type-1 enzyme (11-β-HSD1) (Homo sapiens, UniProt P28845)
T1 construct: made in house; host or cells: Pichia pastoris
Assay: Scintillation proximity assay: human 11-β-HSD1 enzyme assay
Assay type: biochemical
Settings: Ki calculated from IC50 (Cheng Prushoff)
Text: [1, 2(n)-^3H]-cortisone was purchased from Amersham Pharmacia Biotech. Anti-cortisol monoclonal mouse antibody, clone 6D6.7 was obtained from Immunotech and Scintillation proximity assay (SPA) beads coated with monoclonal antimouse antibodies were from Amersham Pharmacia Biotech. NADPH, tetrasodium salt was from Calbiochem and glucose-6-phosphate (G-6-P) was supplied by Sigma. The human 11-β-hydroxysteroid dehydrogenase type-1 enzyme (11-β-HSD1) was expressed in Pichia pastoris. 18-β-glycyrrhetinic acid (GA) was obtained from Sigma. The serial dilutions of the compounds were performed on a Tecan Genesis RSP 150.
Compounds to be tested were dissolved in DMSO (1 mM) and diluted in 50 mM Tris-HCl, pH 7.2 containing 1 mM EDTA.
The multiplication of plates was done on a WallacQuadra. The amount of the product [^3H]-cortisol, bound to the beads was determined in a Packard, Top Count microplate liquid scintillation counter.
The 11-β-HSD1 enzyme assay was carried out in 96 well microtiter plates (Packard, Optiplate) in a total well volume of 220 μL and contained 30 mM Tris-HCl, pH 7.2 with 1 mM EDTA, a substrate mixture tritiated Cortisone/NADPH (175 nM/181 μM), G-6-P (1 mM) and inhibitors in serial dilutions (9 to 0.15 μM). Reactions were initiated by the addition of human 11-β-HSD1, either as Pichia pastoris cell homogenate or microsomes prepared from Pichia pastoris (the final amount of enzyme used was varied between 0.057 to 0.11 mg/mL). Following mixing, the plates were shaken for 30 to 45 minutes at room temperature. The reactions were terminated with 10 μL 1 mM GA stop solution. Monoclonal mouse antibody was then added (10 μL of 4 μM) followed by 100 μL of SPA beads (suspended according to the manufacturers instructions). Appropriate controls were set up by omitting the 11-β-HSD1 to obtain the non-specific binding (NSB) value.
The plates were covered with plastic film and incubated on a shaker for 30 minutes, at room temperature, before counting. The amount of [^3H]-cortisol, bound to the beads was determined in a microplate liquid scintillation counter.
The calculation of the Ki values for the inhibitors was performed by use of Activity Base. The Ki value is calculated from IC50 and the Km value is calculated using the Cheng Prushoff equation (with reversible inhibition that follows the Michaelis-Menten equation): […] [Cheng, Y. C.; Prushoff, W. H. Biochem. Pharmacol. 1973, 22, 3099-3108]. The IC50 is measured experimentally in an assay wherein the decrease of the turnover of cortisone to cortisol is dependent on the inhibition potential of each substance. The Ki values of the compounds of the present invention for the 11-β-HSD1 enzyme lie typically between about 10 nM and about 10 μM. Illustrative of the invention, the following Ki values have been determined in the human 11-β-HSD1 enzyme assay (see Table 1): […]

T1 sequence (P28845 whole entry): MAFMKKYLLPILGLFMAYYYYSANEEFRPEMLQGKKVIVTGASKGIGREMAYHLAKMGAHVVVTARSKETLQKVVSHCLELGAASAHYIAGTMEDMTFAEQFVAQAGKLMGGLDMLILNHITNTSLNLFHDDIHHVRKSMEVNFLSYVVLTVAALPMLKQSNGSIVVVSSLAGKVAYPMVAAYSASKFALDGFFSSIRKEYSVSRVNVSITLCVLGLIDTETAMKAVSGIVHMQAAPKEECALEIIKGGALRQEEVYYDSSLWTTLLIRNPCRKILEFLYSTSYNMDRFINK

| Ki [nM] | Compound |
| --- | --- |
| 32 | CCOC(=O)Cc1csc(NS(=O)(=O)c2cc(C)c(Cl)cc2Cl)n1 [Example 1A, Ethyl (2-{[(2,4-dichloro-5-methylphenyl)sulfonyl]amino}-1,3-thiazol-4-yl)acetate] |
| 51 | O=C(Cc1csc(NS(=O)(=O)c2c(Cl)cc(Cl)cc2Cl)n1)N1CCOCC1 [Example 149A, 2,4,6-Trichloro-N-{4-[2-(4-morpholinyl)-2-oxoethyl]-1,3-thiazol-2-yl}benzenesulfonamide] |
| 21 | O=C(Cc1csc(NS(=O)(=O)c2ccc(-c3ccccc3)cc2)n1)N1CCOCC1 [Example 151A, N-{4-[2-(4-morpholinyl)-2-oxoethyl]-1,3-thiazol-2-yl}[1,1′-biphenyl]-4-sulfonamide] |
| 14 | CCCC(=O)Cc1csc(NS(=O)(=O)c2cccc(Cl)c2C)n1 [Example 179A, 3-Chloro-2-methyl-N-[4-(2-oxopentyl)-1,3-thiazol-2-yl]benzenesulfonamide] |
| 53 | Cc1c(Cl)cccc1S(=O)(=O)Nc1nc(CCO)cs1 [Example 181A, 3-Chloro-N-[4-(2-hydroxyethyl)-1,3-thiazol-2-yl]-2-methylbenzenesulfonamide] |
| 299 | Cc1c(Cl)cccc1S(=O)(=O)Nc1nc(CCOc2cccnc2)cs1 [Example 189A, 3-Chloro-2-methyl-N-{4-[2-(3-pyridinyloxy)ethyl]-1,3-thiazol-2-yl}benzenesulfonamide] |
| 91 | Cc1c(Cl)cccc1S(=O)(=O)Nc1nc(CCN2CCOCC2)cs1.Cl [Example 204A, 3-Chloro-2-methyl-N-{4-[2-(4-morpholinyl)ethyl]-1,3thiazol-2-yl}benzenesulfonamide hydrochloride] |

Test system: not given
Assay: not given
Settings: not given

| melting point [°C] | Compound |
| --- | --- |
| 152 to 153 | CCOCCc1nc(NS(=O)(=O)c2cccc(Cl)c2C)sc1CN(C)C [Example 190A, 3-Chloro-N-[5-[(dimethylamino)methyl]-4(2-ethoxyethyl)-1,3-thiazol-2-yl]-2-methylbenzenesulfonamide] |
| 122 | CCC(=O)OCCc1csc(NS(=O)(=O)c2cccc(Cl)c2C)n1 [Example 192B, 2-(2-{[(3-Chloro-2-methylphenyl)sulfonyl]amino}-1,3-thiazol-4-yl)ethyl propionate] |
| 118 | Cc1c(Cl)cccc1S(=O)(=O)Nc1nc(CCOC(=O)C(C)C)cs1 [Example 193A, 2-(2-{[(3-Chloro-2-methylphenyl)sulfonyl]amino}-1,3-thiazol-4-yl)ethyl 2-methylpropanoate] |
| 161 | Cc1c(Cl)cccc1S(=O)(=O)Nc1nc(CCOC(=O)N2CCOCC2)cs1 [Example 196A, 2-(2-{[(3-Chloro-2-methylphenyl)sulfonyl]amino}-1,3-thiazol-4-yl)ethyl 4-morpholinecarboxylate] |
| 197 to 198 | Cc1c(Cl)cccc1S(=O)(=O)Nc1nc(CCN2CCOCC2)cs1.Cl [Example 204A, 3-Chloro-2-methyl-N-{4-[2-(4-morpholinyl)ethyl]-1,3thiazol-2-yl}benzenesulfonamide hydrochloride] |
